Test results as given in patent US20080182899A1, “ASSOCIATION OF BETA3 RECEPTOR AGONIST AND MONOAMINE REUPTAKE INHIBITORS, PHARMACEUTICAL COMPOSITION AND THERAPEUTIC USE THEREOF” (SANOFI-AVENTIS, priority 2005, published 2008).

Tested on: mice stressed by MCS
Experiment: forced swimming test after moderate chronic stress (MCS) protocol
Format: in vivo, mice (male BALB/c ByJIco)
Conditions: β3 agonist 1 mg/kg; for Percentage of time (immobile time of stressed animals relative to the unstressed animals): forced swimming test on day 50, 1 intraperitoneal injection per day from day 15 to day 50, fluoxetine hydrochloride 3 mg/kg; for Immobile time: forced swimming test on day 50, measured over 5 minutes, 1 intraperitoneal injection per day from day 15 to day 50, fluoxetine hydrochloride 3 mg/kg; for effect of repeated administration on immobile time (in words): forced swimming test on day 50, repeated intraperitoneal administration day 15 to day 50, fluoxetine 3 mg/kg
Method: The antidepressant effects of the combination according to the invention were evaluated in mice using the moderate chronic stress (MCS) protocol. This test was developed on rats by Willner (P. Willner, Neuroscience and Biobehavioral Review, 1992, 16, 525-34) and adapted to mice by Kopp et al. (C. Kopp, Behavioral Pharmacology, 1999, 10, 73-83).
Similarities between the depressive state in man and the effect of moderate chronic stress in mice were established. The emotivity of mice stressed by MCS was evaluated in the forced swimming test.
The MCS is performed in the following manner:
Male BALB/c ByJIco mice (Iffa Credo Lyons, France) 8 weeks old are placed in individual experiment cages (26×20×14 cm), provided with food and water ad libitum, at a controlled temperature of 22±1° C.
In the context of the protocol, the mice are subjected to a series of stresses such as forced bathing, food and/or water deprivation, housing in cages containing wet sawdust, permutation of the day/night cycle, maintenance under constant illumination or in darkness, each of these restrictions possibly lasting from 2 hours to 24 hours.
A first group of control animals is not subjected to the MCS (group 1—unstressed).
The animals subjected to the MCS are divided into 4 groups on day 15: • Group 2 (saline stress) consists of control animals receiving one intraperitoneal injection per day of physiological fluid. • Group 3 (fluoxetine stress) receives 1 intraperitoneal injection per day of fluoxetine hydrochloride at a rate of 3 mg/kg. • Group 4 (β3 agonist stress) receives 1 intraperitoneal injection per day of ethyl [(7S)-7(2R)-2-(3-chlorophenyl)-2-hydroxyethylamino-5,6,7,8-tetrahydronaphthalen-2-yloxy]acetate hydrochloride at a rate of 1 mg/kg. • Group 5 (fluoxetine+β3 agonist stress) receives 1 intraperitoneal injection per day of a solution containing fluoxetine hydrochloride (3 mg/kg) and ethyl [(7S)-7(2R)-2-(3-chlorophenyl)-2-hydroxyethylamino-5,6,7,8-tetrahydro-naphthalen-2-yloxy]acetate hydrochloride (1 mg/kg).
The injections are performed from day 15 to day 50.
On day 50, each group is subjected to the forced swimming test. […] The immobile time is measured over a period of 5 minutes.

Row | SMILES | Percentage of time (immobile time of stressed animals relative to the unstressed animals) | Immobile time [s] | effect of repeated administration on immobile time (in words)
1 | CNCCC(Oc1ccc(C(F)(F)F)cc1)c1ccccc1 (stereo not drawn) [fluoxetine] | +21.5% | 178.4 | does not significantly modify this parameter
2 | CCOC(=O)COc1ccc2c(c1)C[C@@H](NC[C@H](O)c1cccc(Cl)c1)CC2.Cl [β3 agonist, ethyl [(7S)-7(2R)-2-(3-chlorophenyl)-2-hydroxyethylamino-5,6,7,8-tetrahydronaphthalen-2-yloxy]acetate hydrochloride] | +25.1% | 182.0 | does not significantly modify this parameter
